# Experimental data published in ChEMBL document CHEMBL2440076, “New triarylpyrazoles as broad-spectrum anticancer agents: design, synthesis, and biological evaluation” (Eur J Med Chem, 2013).
# Columns and labels:
# CAKI-1 [1] = assay: Growth inhibition of human CAKI-1 cells after 48 hrs by sulforhodamine B assay; type: functional; conditions: CAKI-1, 48 h; for CC50: read-out: LC50 (the source's name)
# CAKI-1 [2] = assay: Growth inhibition of human CAKI-1 cells assessed as cell growth at 10 uM after 48 hrs by sulforhodamine B assay; type: functional; conditions: CAKI-1, 48 h, read-out: Activity
# 786-0 = assay: Growth inhibition of human 786-0 cells after 48 hrs by sulforhodamine B assay; type: functional; conditions: 786-0, 48 h; for CC50: read-out: LC50 (the source's name)
# OVCAR-8 [3] = assay: Growth inhibition of human OVCAR8 cells assessed as cell growth at 10 uM after 48 hrs by sulforhodamine B assay; type: functional; conditions: OVCAR-8, 48 h, read-out: Activity
# MDA-MB-231 [4] = assay: Growth inhibition of human MDA-MB-231 cells assessed as cell growth at 10 uM after 48 hrs by sulforhodamine B assay; type: functional; conditions: MDA-MB-231, 48 h, read-out: Activity
# HL-60(TB) = assay: Growth inhibition of human HL-60(TB) cells after 48 hrs by sulforhodamine B assay; type: functional; conditions: HL-60, 48 h; for CC50: read-out: LC50 (the source's name)
# UO-31 = assay: Growth inhibition of human UO31 cells assessed as cell growth at 10 uM after 48 hrs by sulforhodamine B assay; type: functional; conditions: UO-31, 48 h, read-out: Activity
# UACC-62 = assay: Growth inhibition of human UACC62 cells assessed as cell growth at 10 uM after 48 hrs by sulforhodamine B assay; type: functional; conditions: UACC-62, 48 h, read-out: Activity
# MCF7 = assay: Growth inhibition of human MCF7 cells assessed as cell growth at 10 uM after 48 hrs by sulforhodamine B assay; type: functional; conditions: MCF7, 48 h, read-out: Activity
# SF-268 = assay: Growth inhibition of human SF268 cells after 48 hrs by sulforhodamine B assay; type: functional; conditions: SF-268, 48 h; for CC50: read-out: LC50 (the source's name)
# COLO 205 [5] = assay: Growth inhibition of human COLO205 cells after 48 hrs by sulforhodamine B assay; type: functional; conditions: COLO 205, 48 h
# [6] = Growth inhibition of human HCC2998 cells assessed as cell growth at 10 uM after 48 hrs by sulforhodamine B assay; type: functional; conditions: HCC 2998, 48 h, read-out: Activity
# BT-549 [7] = assay: Growth inhibition of human BT549 cells after 48 hrs by sulforhodamine B assay; type: functional; conditions: BT-549, 48 h
# MDA-MB-435 = assay: Growth inhibition of human MDA-MB-435 cells after 48 hrs by sulforhodamine B assay; type: functional, cell-based; conditions: MDA-MB-435, 48 h; for CC50: read-out: LC50 (the source's name)
# K562 = assay: Growth inhibition of human K562 cells assessed as cell growth at 10 uM after 48 hrs by sulforhodamine B assay; type: functional; conditions: K562, 48 h, read-out: Activity
# [8] = Growth inhibition of human Hs 578T cells after 48 hrs by sulforhodamine B assay; type: functional; conditions: for CC50: read-out: LC50 (the source's name)
# ACHN = assay: Growth inhibition of human ACHN cells assessed as cell growth at 10 uM after 48 hrs by sulforhodamine B assay; type: functional; conditions: read-out: Activity
# SK-MEL-28 = assay: Growth inhibition of human SK-MEL-28 cells after 48 hrs by sulforhodamine B assay; type: functional; conditions: SK-MEL-28, 48 h
# NCI-H322M = assay: Growth inhibition of human NCI-H322M cells after 48 hrs by sulforhodamine B assay; type: functional; conditions: for CC50: read-out: LC50 (the source's name)
# HOP-92 = assay: Growth inhibition of human HOP92 cells assessed as cell growth at 10 uM after 48 hrs by sulforhodamine B assay; type: functional; conditions: HOP-92, 48 h, read-out: Activity
# RPMI-8226 = assay: Growth inhibition of human RPMI8226 cells after 48 hrs by sulforhodamine B assay; type: functional, cell-based; conditions: RPMI-8226, 48 h; for CC50: read-out: LC50 (the source's name)
# OVCAR-8 [9] = assay: Growth inhibition of human OVCAR8 cells after 48 hrs by sulforhodamine B assay; type: functional; conditions: OVCAR-8, 48 h; for CC50: read-out: LC50 (the source's name)
# NCI-H522 [10] = assay: Growth inhibition of human NCI-H522 cells assessed as cell growth at 10 uM after 48 hrs by sulforhodamine B assay; type: functional; conditions: NCI-H522, 48 h, read-out: Activity
# NCI-H522 [11] = assay: Growth inhibition of human NCI-H522 cells after 48 hrs by sulforhodamine B assay; type: functional; conditions: NCI-H522, 48 h
# SW-620 = assay: Growth inhibition of human SW620 cells assessed as cell growth at 10 uM after 48 hrs by sulforhodamine B assay; type: functional; conditions: SW-620, 48 h, read-out: Activity
# CCRF-CEM = assay: Growth inhibition of human CCRF-CEM cells after 48 hrs by sulforhodamine B assay; type: functional
# Malme-3M = assay: Growth inhibition of human MALME-3M cells after 48 hrs by sulforhodamine B assay; type: functional
# BT-549 [12] = assay: Growth inhibition of human BT549 cells assessed as cell growth at 10 uM after 48 hrs by sulforhodamine B assay; type: functional; conditions: BT-549, 48 h, read-out: Activity
# MDA-MB-231 [13] = assay: Growth inhibition of human MDA-MB-231 cells after 48 hrs by sulforhodamine B assay; type: functional; conditions: MDA-MB-231, 48 h
# COLO 205 [14] = assay: Growth inhibition of human COLO205 cells assessed as cell growth at 10 uM after 48 hrs by sulforhodamine B assay; type: functional; conditions: COLO 205, 48 h, read-out: Activity
# M14 = assay: Growth inhibition of human M14 cells assessed as cell growth at 10 uM after 48 hrs by sulforhodamine B assay; type: functional; conditions: M14, 48 h, read-out: Activity
# TK-10 = assay: Growth inhibition of human TK10 cells after 48 hrs by sulforhodamine B assay; type: functional; conditions: TK-10, 48 h; for CC50: read-out: LC50 (the source's name)
# [15] = Growth inhibition of human NCI-ADR-RES cells assessed as cell growth at 10 uM after 48 hrs by sulforhodamine B assay; type: functional; conditions: read-out: Activity
# OVCAR-5 = assay: Growth inhibition of human OVCAR5 cells assessed as cell growth at 10 uM after 48 hrs by sulforhodamine B assay; type: functional; conditions: OVCAR-5, 48 h, read-out: Activity
structure (smiles),measurement,setting,value
COc1cc(-c2nn(-c3cccc(NC(=O)Nc4cccc(C(F)(F)F)c4)c3)cc2-c2ccncc2)ccc1Cl,GI50,CAKI-1 [1],1.03 µM
same,TGI,CAKI-1 [1],3.51 µM
same,CC50,CAKI-1 [1],> 50 µM
same,growth at 10 µM,CAKI-1 [2],11.5%
same,GI50,786-0,1.28 µM
same,TGI,786-0,4.05 µM
same,CC50,786-0,> 50 µM
same,growth at 10 µM,OVCAR-8 [3],-36.2%
same,growth at 10 µM,MDA-MB-231 [4],-28.8%
same,GI50,HL-60(TB),1.37 µM
same,TGI,HL-60(TB),> 50 µM
same,CC50,HL-60(TB),> 50 µM
same,growth at 10 µM,UO-31,7.94%
same,growth at 10 µM,UACC-62,-76.1%
same,growth at 10 µM,MCF7,-6.3%
same,GI50,SF-268,1.36 µM
same,TGI,SF-268,5.43 µM
same,CC50,SF-268,50 µM
same,GI50,COLO 205 [5],0.894 µM
same,LC50 (concentration killing 50% of cells),COLO 205 [5],3.43 µM
same,TGI,COLO 205 [5],1.75 µM
same,growth at 10 µM,[6],-18.4%
same,GI50,BT-549 [7],1.25 µM
same,LC50 (50% lethal concentration),BT-549 [7],50 µM
same,TGI,BT-549 [7],3.81 µM
same,GI50,MDA-MB-435,0.866 µM
same,IC50,MDA-MB-435,0.87 µM
same,TGI,MDA-MB-435,2.14 µM
same,CC50,MDA-MB-435,8.07 µM
same,growth at 10 µM,K562,1.6%
same,GI50,[8],1.23 µM
same,TGI,[8],12.5 µM
same,CC50,[8],> 50 µM
same,growth at 10 µM,ACHN,6.54%
same,GI50,SK-MEL-28,1.12 µM
same,LC50,SK-MEL-28,21.1 µM
same,TGI,SK-MEL-28,3.35 µM
same,GI50,NCI-H322M,1.21 µM
same,TGI,NCI-H322M,4.73 µM
same,CC50,NCI-H322M,> 50 µM
same,growth at 10 µM,HOP-92,-33.6%
same,GI50,RPMI-8226,0.34 µM
same,IC50,RPMI-8226,0.34 µM
same,TGI,RPMI-8226,3.12 µM
same,CC50,RPMI-8226,> 50 µM
same,GI50,OVCAR-8 [9],0.739 µM
same,TGI,OVCAR-8 [9],2.7 µM
same,CC50,OVCAR-8 [9],> 50 µM
same,growth at 10 µM,NCI-H522 [10],-30.8%
same,GI50,NCI-H522 [11],0.714 µM
same,LC50 (concentration killing 50% of cells),NCI-H522 [11],> 50 µM
same,TGI,NCI-H522 [11],2.43 µM
same,growth at 10 µM,SW-620,8.92%
same,GI50,CCRF-CEM,0.945 µM
same,LC50,CCRF-CEM,> 50 µM
same,GI50,Malme-3M,1.05 µM
same,LC50 (concentration killing 50% of starting cells),Malme-3M,33.9 µM
same,TGI,Malme-3M,2.41 µM
same,growth at 10 µM,BT-549 [12],-15.4%
same,GI50,MDA-MB-231 [13],0.811 µM
same,LC50,MDA-MB-231 [13],25.5 µM
same,TGI,MDA-MB-231 [13],2.37 µM
same,growth at 10 µM,COLO 205 [14],-88.9%
same,growth at 10 µM,M14,-61.5%
same,GI50,TK-10,1.31 µM
same,TGI,TK-10,19 µM
same,CC50,TK-10,> 50 µM
same,growth at 10 µM,[15],-11.9%
same,growth at 10 µM,OVCAR-5,28.2%
O=C(Nc1cccc(-n2cc(-c3ccncc3)c(-c3ccc(Cl)c(O)c3)n2)c1)Nc1cccc(C(F)(F)F)c1,GI50,CAKI-1 [1],1.75 µM
same,TGI,CAKI-1 [1],> 32.5 µM
same,CC50,CAKI-1 [1],> 32.5 µM
same,growth at 10 µM,CAKI-1 [2],30.1%
same,GI50,786-0,4.69 µM
same,TGI,786-0,> 32.5 µM
same,CC50,786-0,> 32.5 µM
same,growth at 10 µM,OVCAR-8 [3],10.6%
same,growth at 10 µM,MDA-MB-231 [4],21.3%
same,GI50,HL-60(TB),1.45 µM
same,TGI,HL-60(TB),> 32.5 µM
same,CC50,HL-60(TB),> 32.5 µM
same,growth at 10 µM,UO-31,24.8%
same,growth at 10 µM,UACC-62,10.4%
same,growth at 10 µM,MCF7,10.3%
same,GI50,SF-268,1.95 µM
same,TGI,SF-268,15.8 µM
same,CC50,SF-268,> 32.5 µM
same,GI50,COLO 205 [5],7.9 µM
same,LC50 (concentration killing 50% of cells),COLO 205 [5],> 32.5 µM
same,TGI,COLO 205 [5],23.8 µM
same,growth at 10 µM,[6],40.1%
same,GI50,BT-549 [7],6.51 µM
same,LC50 (50% lethal concentration),BT-549 [7],> 32.5 µM
same,TGI,BT-549 [7],21.4 µM
same,GI50,MDA-MB-435,1.49 µM
same,IC50,MDA-MB-435,1.49 µM
same,TGI,MDA-MB-435,12.6 µM
same,CC50,MDA-MB-435,> 32.5 µM
same,growth at 10 µM,K562,13.4%
same,GI50,[8],3.31 µM
same,TGI,[8],> 32.5 µM
same,CC50,[8],> 32.5 µM
same,growth at 10 µM,ACHN,11.2%
same,GI50,SK-MEL-28,4.11 µM
same,LC50,SK-MEL-28,> 32.5 µM
same,TGI,SK-MEL-28,> 32.5 µM
same,GI50,NCI-H322M,6.41 µM
same,TGI,NCI-H322M,> 32.5 µM
same,CC50,NCI-H322M,> 32.5 µM
same,growth at 10 µM,HOP-92,-17.7%
same,GI50,RPMI-8226,1.34 µM
same,IC50,RPMI-8226,1.34 µM
same,TGI,RPMI-8226,> 32.5 µM
same,CC50,RPMI-8226,> 32.5 µM
same,GI50,OVCAR-8 [9],1.57 µM
same,TGI,OVCAR-8 [9],> 32.5 µM
same,CC50,OVCAR-8 [9],> 32.5 µM
same,growth at 10 µM,NCI-H522 [10],-10.8%
same,GI50,NCI-H522 [11],1.46 µM
same,LC50 (concentration killing 50% of cells),NCI-H522 [11],> 32.5 µM
same,TGI,NCI-H522 [11],14.5 µM
same,growth at 10 µM,SW-620,28.5%
same,GI50,CCRF-CEM,1.4 µM
same,LC50,CCRF-CEM,> 32.5 µM
same,TGI,CCRF-CEM,> 32.5 µM
same,GI50,Malme-3M,1.81 µM
same,LC50 (concentration killing 50% of starting cells),Malme-3M,> 32.5 µM
same,TGI,Malme-3M,20.1 µM
same,growth at 10 µM,BT-549 [12],36%
same,GI50,MDA-MB-231 [13],3.59 µM
same,LC50,MDA-MB-231 [13],> 32.5 µM
same,TGI,MDA-MB-231 [13],26.8 µM
same,growth at 10 µM,COLO 205 [14],94.2%
same,growth at 10 µM,M14,16.6%
same,GI50,TK-10,2.12 µM
same,TGI,TK-10,> 32.5 µM
same,CC50,TK-10,> 32.5 µM
same,growth at 10 µM,[15],24.9%
same,growth at 10 µM,OVCAR-5,62.4%
